# Results from patent US8617563B2, “Antichlamydial agents” (Duke University, priority 2011, dated 2013).
# “Also recorded” adds a separate entry of the source. Where no end group is shown, it is not given here.
# Legend:
# [1] = molecular target: CPAF (Chlamydia trachomatis serovar D, UniProt O84866); type: biochemical, C. trachomatis; set-up: 6xHis; made in house; host or cells: E. coli (pET30b); conditions: GST-chlamydial substrates in presence of peptides
# Method: FIG. 4 depicts (A) Recombinant Chlamydia ORFs were tested for sensitivity to host and bacterial derived proteases. […] Purified his-tagged CPAF was incubated with GST-tagged chlamydial substrates at 37° C. for 20 min with increasing amounts of lactacystin. Cleavage products were run on an SDS PAGE gel and visualized with Coomassie blue staining. (C) Schematic summary of CPAF targets. […] Membranes from Chlamydia-infected HeLa cells were harvested and purified at 0, 24, 36 and 48 hours post-infection, and the abundance of the chlamydial proteins Ct005, IncC and IncD were monitored with specific antibodies. Na/K ATPase and IncG served as host and bacterial-loading controls, respectively.
# Cytosols from Chlamydia-infected HeLa cells (40 hrs) or recombinant his-tagged CPAF were pre-treated with rabbit polyclonal anti-CPAF or anti-IncA antisera, and incubated with GST-tagged Chlamydia proteins for 20 min at 37° C. […] Three example proteins shown include a type-III secretion (T3S) core component (CdsQ) a T3S chaperone (Mcsc) and a T3S needle component (Ct584). Processing of recombinant proteins in A-B were monitored by immunoblot analysis with specific antibodies. (C) Protease inhibitor profile of recombinant CPAF. Example shown for the chlamydial substrate GST-IncC. Degradation products were visualized by SDS-PAGE followed by staining with Coomassie blue. […]
# Uninfected and HeLa cells pre-infected with L2 for 30 hrs were treated with inhibitory peptides and infected with EBs for 10 min Tarp translocation was indirectly visualized with an anti-phosphotyrosine antibody (A) and quantified by counting 50 separate cells (B). The stability of newly translocated Tarp was assessed by infecting cells as in (A) but with S^35-labeled EBs, followed by sequential immunoprecipitation of Tarp and MOMP and Phosphoimager analysis of precipitated material (C (I-IV)). […] IC50 values were determined by assessing CPAF cleavage of an Abz-tagged CPAF substrate (SEQ ID NO:9) by HPLC. […] Extracellular bacteria were determined. […] The number of internalized EBs was quantified per cell (H). […]
# [2] = system: C. muridarum CPAF; test: GST-IncC cleavage by lysate of C. muridarum infected cells; type: biochemical; conditions: infected whole cell lysate
# Method: Cells were infected with an MOI of 1 and treated with CPAF inhibitor (SEQ ID NO:7) or control (SEQ ID NO:11) peptides at 12 hpi, fixed at 24 hpi and analyzed by IF with anti-L2 polyclonal antisera. Inclusion size was determined by measuring the inclusion diameter in μm by confocal microscopy of 50 infected cells. The number of cells with fragmented inclusions was determined by counting the number of infected cells out of 50 with more than one inclusion. (C) Sequence alignment and % sequence identify of full length CPAF and predicted inhibitory peptide sequence between C. trachomatis serovar LGV-L2, Chlamydia muridarum, and Chlamydophila caviae was determined using Geneious software (available at the Geneious website). […] GPIC or C. muridarum infected whole cell protein lysate was preincubated with SEQ ID NO:7 peptide or SEQ ID NO:11 control peptide, mixed with GST-IncC at 37° C., resolved by SDS-PAGE and stained with Coomassie blue. […] Inhibition of C. muridarum (E) and C. ceviae (F) growth was determined by counting the number of recovered IFUs. […] Inclusions were detected by IF with anti-LGV-L2 (A, B, E) antisera or anti-chlamydial LPS (F) monoclonal antibodies, and host nuclei sere detected by staining.
# [3] = system: epithelial cells infected with C. muridarum; test: Host cell death (condensed nuclei) in C. muridarum infected cells; type: cell-based; conditions: dose-dependent, peptide at 12 hpi
# Method: FIG. 12 depicts (A) low-magnification view of C. trachomatis LGV-L2 infected HeLa monolayers (30 h) treated with SEQ ID NO:7 or SEQ ID NO:11 peptides. (B) The frequency of condensed nuclei in treated cells is dependent on peptide concentration and Chlamydia infection. (C-D) Toxicity of CPAF inhibitors to Chlamydia-infected cells is observed in non-myeloid cells including human embryonic kidney cells HEK293 (C) and mouse embryo fibroblasts (D). […] (F-G) Cell death induced by anti-CPAF peptides requires Caspase-1 activation. HeLa cells infected with C. muridarum were treated with Ac-YVAD-CMK at 2 hpi, SEQ ID NO:7 peptide or SEQ ID NO:11 control peptide at 12 hpi and the percentage of infected cells with condensed nuclei was assessed at 48 hpi (F). Mouse lung fibroblasts (MLF) derived from congenic WT, ICE1^−/− and ASC^−/− animals were infected with C. muridarum and treated with the indicated concentrations of anti peptides 12 hpi. The percentage of infected cells with condensed nuclei was assessed at 48 hpi (G). LGV-L2 inclusions were immunostained with anti-L2 antisera and C. muridarum and C. caviae inclusions were immunostained with an anti-chlamydial LPS monoclonal antibody. Cell death in infected and uninfected cells treated with CPAF inhibitory peptides or control peptides was determined by counting the number of condensed nuclei of ˜1000 cells.
# Chain of CPAF (O84866 1-234, added parts left off): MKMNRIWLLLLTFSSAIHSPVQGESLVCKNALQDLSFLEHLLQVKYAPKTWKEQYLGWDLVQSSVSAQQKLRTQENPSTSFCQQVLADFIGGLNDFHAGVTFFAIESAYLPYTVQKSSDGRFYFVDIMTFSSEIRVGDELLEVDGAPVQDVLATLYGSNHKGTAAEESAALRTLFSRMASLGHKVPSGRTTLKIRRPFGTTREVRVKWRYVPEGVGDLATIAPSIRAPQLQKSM
# Chain of CPAF (O84866 276-601): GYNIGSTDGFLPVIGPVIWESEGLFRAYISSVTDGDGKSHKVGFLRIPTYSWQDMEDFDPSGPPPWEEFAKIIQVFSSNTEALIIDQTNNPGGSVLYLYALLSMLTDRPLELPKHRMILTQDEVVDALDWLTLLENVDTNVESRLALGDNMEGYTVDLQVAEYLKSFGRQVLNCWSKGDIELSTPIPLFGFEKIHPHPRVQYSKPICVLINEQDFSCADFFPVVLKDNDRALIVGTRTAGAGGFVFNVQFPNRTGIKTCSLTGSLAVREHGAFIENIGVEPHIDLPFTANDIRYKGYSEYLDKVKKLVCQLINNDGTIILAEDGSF
substance,measurement,setting,value
SLFYSPMVPHFWAELRNHYATSGLKRRRRRRRRR-NH2 [SEQ ID NO:7],Inhibition of degradation of CPAF substrates in vitro,[1],broadly inhibited degradation of CPAF substrates
same,Inhibition of substrate cleavage by C. muridarum CPAF,[2],prevented cleavage of substrate; also recorded: inhibits C. muridarum CPAF
same,Number of condensed nuclei in C. muridarum infected cells,[3],marked increase in the number of condensed nuclei
